The subject of one test is basal organoids. The test can be described thus: Growth factor evaluation for basal organoids after sedimentation and clonogenic culture. Format: cell-based, human. Also on record: basal organoid growth: dose or concentration left out as unconfirmed. The source says:
(§1) Screening exogenous growth factors in organoid culture.
Density sedimentation of basal cells. Organoid cultures within 2-3 weeks of primary plating were dissociated with 1 U/ml neutral protease (Worthington, Cat LS02100) and 100 KU of DNase I in organoid media. Basal organoids were then collected by gravity sedimentation and the supernatant was either aspirated or collected for downstream use. Basal organoids were then further fractionated on a custom Ficoll-Paque gradient (4 vol Ficoll-Paque to 1 vol PBS) and centrifuged at 300×g for 10 minutes at room temperature. The supernatant was aspirated and the organoid pellet was resuspended in 10 ml PBS in a 15 ml conical tube, collected by gravity sedimentation, and plated into ECM as described above.

The subject of a further test is AT2 organoids. Nature of the test: AT2 organoid proliferation with niche factors and PORCUPINE inhibitor.
Test [1] concerns TNFRSF12A^hi basal cells. The following applies: basal organoids from FACS-purified TNFRSF12A^hi EPCAM+ITGA6+ITGB4+ cells, 14 days culture.
Procedure: NOTCH manipulation in TNFRSF12A^hi basal cells. TNFRSF12A^hi basal cells were isolated and cultured as above. 24 hours after plating, media was changed to lung organoid media with either vehicle (0.1% DMSO), 1 μg/ml JAG1 peptide (Anaspec), 500 nM soluble recombinant NOTCH receptor inhibitor Delta Like Ligand 4 mutant (DLL4E12), or 1 μM gamma secretase inhibitor DBZ (Tocris). After 14 days of culture, biochemical estimation of proliferation was carried out by resazurin reduction assay (Alamar Blue, Thermo Fisher) for 16 hours according to manufacturer's protocol and resazurin reduction was measured via fluorescence readout on a Biotek Synergy H1 plate reader according to the manufacturer's protocol. Reference blank consisted of Alamar Blue reagent incubated in parallel media without cells.
Test [2] concerns TNFRSF12A^hi basal cells. Conditions: NOTCH inhibition.
Procedure: Quantitation of SCGB1A1 and SFTPC mRNA expression in TNFRSF12A^hi basal cells. FACS-isolated basal cells cultured in the above conditions were fixed in 2% paraformaldehyde in PBS for one hour at room temperature, embedded in HistoGel (Thermo Fisher HG-4000-012), dehydrated and paraffin embedded en bloc. One hundred serial sections were obtained at 10 micron thickness, and immunocytochemistry and in situ hybridization were performed at each 100 micron level. Confocal images were acquired in a blinded manner and organoids were defined as a cluster of 3 or greater DAPI nuclei. Channels were acquired using identical parameters for DAPI, Alexa 488 (SFTPC RNA in situ hybridization), Texas Red (SCGB1A1 RNA in situ hybridization), and Alexa 647 (KRTS immunostaining). Z-stacks were collected and images were processed in ImageJ and maximum intensity Z projections were used to quantitate SCGB1A1 and SFTPC RNA in situ in Cell Profiler using the RNA Proximity Ligase Assay counting pipeline.
Test [3] relates to PR8 strain of H1N1 modified to express GFP. Nature of the test: microbe, parasite or virus in culture. Format: cell-based, influenza H1N1 (in human distal lung organoids).
Test [4] relates to human distal lung organoids. The test can be described thus: Screening exogenous growth factors in distal lung organoid culture. The format is cell-based. The following applies: single cell suspensions of distal lung, feeder-free; EGF and NOGGIN in combination.
Excerpt: as §1

Usually IC50 stands for the concentration at which inhibition is half-maximal.

“Also recorded” adds a separate entry of the source.

Procedure for AT2 organoids: Screening exogenous growth factors in organoid culture. Distal airway cells were isolated and plated as above with the following exceptions: ADMEM/F12 was used instead of organoid medium during elastase digestion of lung tissue, cells were serially diluted and filtered through a 40 micron cell strainer and counted with a hemocytometer. 1000 viable epithelial cells (by Trypan blue exclusion, size, and morphology) per μL ECM were plated per 5 μL Matrigel droplet per well. Base media consisted of organoid media lacking A83-01, EGF, NOGGIN, WNT3A or RSPO1. EGF (final 50 ng/ml, R&D), NOGGIN (final 100 ng/ml, R&D), WNT3A (final 100 ng/ml, R&D), RSPO1 (final 500 ng/ml, Peprotech) or the PORCUPINE inhibitor C59 (final 1μM, Biogems) were added singly or in combination to base media. Images were obtained ten days after primary plating with an inverted light microscope at 5X magnification. Each condition was plated in quadruplicate and organoid formation was quantified using the analyze particle (threshold=4902 pixels) plugin in ImageJ as previously described.

Turning to `Cc1cc(-c2ccc(CC(=O)Nc3ccc(-c4cccnc4)cc3)cc2)ccn1` [C59, reference compound], the basal organoid growth entry in the test with basal organoids (after d14 sedimentation, clonogenic culture, C59) is on record as “growth was not significantly inhibited; also recorded: Growth was not affected”. Further, the AT2 organoid growth entry in the test with AT2 organoids (PORCUPINE inhibitor C59 (1 μM)) is recorded as “attenuated AT2 organoid growth”.
Take `C[C@H](NC(=O)Cc1cc(F)cc(F)c1)C(=O)N[C@@H]1C(=O)N(C)c2ccccc2-c2ccccc21` [DBZ]: the “proliferation (resazurin dye reduction)” value in the test with TNFRSF12A^hi basal cells [1] is given as “significantly increased proliferation”. Further, the “SFTPC mRNA expression” value in the test with TNFRSF12A^hi basal cells [2] is “upregulating SFTPC mRNA”.
Turning to `Nc1ccn([C@@H]2O[C@H](CO)[C@@H](O)[C@H]2F)c(=O)n1` [FdC, 2′-deoxy-2′-fluorocytidine], in test [3], the “inhibition of H1N1 viral infection or replication (GFP attenuation)” value is given as “efficacious with EC50 consistent with previous reports”. Further, the IC50 in test [3] (Influenza A virus, read-out: IC50 on influenza infectivity and replication (dose response curve)) was found to be 340 nM.
As to `CC(=O)N[C@H]1[C@H]([C@H](O)[C@H](O)CO)OC(C(=O)O)=C[C@@H]1N=C(N)N` [zanamivir], in test [3], the “IC50 on influenza infectivity and replication (dose response curve)” value was “did not exhibit a dose response curve”; the “inhibition of H1N1 viral infection or replication (GFP attenuation)” value is given as “did not inhibit H1N1 viral infection or replication”.
Regarding “EGF: recombinant human EGF (R&D Systems)”, the “basal organoid growth with exogenous growth factors” value in the test with basal organoids (pure basal cell cultures, EGF and Noggin together) is recorded as “sufficient for maximal growth”. Further, the “distal lung organoid growth with exogenous growth factors” value in test [4] is recorded as “optimal”. Moreover, in the test with AT2 organoids (EGF and NOGGIN together, WNT-3A and RSPONDIN-1 added exogenously), the “clonal AT2 organoid proliferation with exogenous growth factors” value is listed as “sufficient for clonal AT2 organoid proliferation”.

These data come from US20230257716A1 (priority 2020, published 2023).
